# Assays:
# [1] = assay type: physicochemical
# Description: Tenofovir (TFV) is a potent antiviral drug used to treat infectious diseases. Due to the fact that tenofovir (TFV) is highly water soluble, a method was developed for formulating mucus-penetrating particles of tenofovir. […] In order to decrease the water solubility of TFV, interactions between cations and nucleotides/nucleotide analogs were exploited. TFV interacts very strongly with zinc cations (Zn), via the phosphonate group and the purine ring structure. This interaction with zinc causes TFV precipitation into crystals that can be stabilized with the coatings described herein, halting aggregation and determining the crystal surface properties. Additionally, Zn is naturally present in vaginal fluid and has known antimicrobial properties recently extended to include anti-HIV activity.
# [2] = tested on: IL-1β, IL-1α, TNF-α, and IL-6; experiment: Cytokine concentrations in cervicovaginal lavage after daily vaginal treatment for 7 days; details: day 8 after daily dosing for seven days
# Description: Because our ultimate goal was to test MPPs for protection against HSV-2, we compared an MPP formulation containing acyclovir monophosphate (ACVp) to N9, HEC placebo gel, PBS, and a gel vehicle (TFV vehicle) used in recent tenofovir clinical trials. Nanoparticle and control formulations were administered vaginally to Depo Provera-treated mice daily for seven days.
# Twenty μL of each test agent was administered intravaginally to the DP mouse model once-a-day for seven (7) days. […] On the eighth day, each mouse was lavaged twice with 50 μL of PBS. Each lavage sample was diluted with an additional 200 μL of PBS and centrifuged to remove the mucus plug. Supernatant (200 μL) was removed and split into 50 μL for each of the four (IL-1β, IL-1α, TNF-α, and IL-6) Quantikine ELISA kits (R&D Systems, Inc.). ELISAs were conducted per the manufacturer's instructions.
# [3] = Acute vaginal toxicity by H&E staining 24 h after intravaginal administration; assay type: in vivo, DP mice
# Description: Standard hematoxylin and eosin (H&E) staining was used to investigate potential toxic effects of intravaginally administered nanoparticles. […] The same (BD-) MPPs and (BD-) CPs that were used for distribution and retention studies were tested for toxicity.
# Five μL of particles or control solutions were administered intravaginally to the DP mouse model. After 24 h, whole cervicovaginal tracts were obtained and fixed in 4% paraformaldehyde solution for 24 h. Tissues were placed in 70% ethanol and taken to the Johns Hopkins Reference Histology Laboratory for paraffin embedding and standard H&E staining.
# [4] = Description: [formula] where <Vmean> is the ensemble average trajectory-mean velocity, Vmean is the velocity of an individual particle averaged over its trajectory, the sample is the particle of interest, the negative control is a 200 nm carboxylated polystyrene particle, and the positive control is a 200 nm polystyrene particle densely PEGylated with 2 kDa-5 kDa PEG.
# For instance, a fluorescent microscope equipped with a CCD camera can be used to capture 15 s movies at a temporal resolution of 66.7 ms (15 frames/s) under 100× magnification from several areas within each sample for each type of particles: sample, negative control, and positive control.
# In a typical experiment, ≦0.5 uL of a nanosuspension (diluted if necessary to the surfactant concentration of ˜1%) was added to 20 μl of fresh CVM along with controls. […] Using a fluorescent microscope equipped with a CCD camera, 15 s movies were captured at a temporal resolution of 66.7 ms (15 frames/s) under 100× magnification from several areas within each sample for each type of particles: sample (pyrene), negative control, and positive control (natural blue fluorescence of pyrene allowed observing of pyrene nanoparticles separately from the controls). […] To enable easy comparison between different samples and normalize velocity data with respect to natural variability in penetrability of CVM samples, relative sample velocity <Vmean>rel, was determined according to the formula shown in Equation 1.
# CVM was collected by inserting a Softcup® menstrual collection cup into the vaginal tract as described by the product literature for between 30 seconds and 2 minutes. After removal the CVM was then collected from the Softcup® by gentle centrifugation at ˜30×G to ˜120×G in a 50 mL centrifuge tube. In Example 1, CVM was used undiluted and fresh (stored for no longer than 7 days under refrigerated conditions). Barrier and transport of all CVM samples used in Example 1 were verified with negative (200 nm carboxylated polystyrene particles) and positive (200 nm polystyrene particles modified with PEG 5K) controls. In Example 2, CVM was lyophilized and reconstituted. In Example 2, mucus was frozen at −50° C. and then lyophilized to dryness. Samples were then stored at −50° C. Before use, the mucus was reconstituted by grinding the solid into a fine powder using a mortar and pestle followed by water addition to a final volume equal to the original volume to 2 times the original volume. The reconstituted mucus was then incubated at 4° C. for 12 hours and used as described in Example 2. Barrier and transport of all CVM samples used in Example 2 were verified with negative (200 nm carboxylated polystyrene particles) and positive (F127 coated 200 nm polystyrene particles) controls.
# HSV-2 = details: single vaginal pretreatment with 50 mg/mL (5%); guinea pigs; cited from earlier work
# HSV-2 strain G = experiment: HSV-2 vaginal challenge in mice; assay type: in vivo, CF-1 mice; details: intravaginal 30 min before challenge
# Description: Female 6-8 week old CF-1 mice were subcutaneously injected with medroxyprogesterone acetate, and one week later received 20 μl of test agent or PBS intravaginally with a fire-polished positive displacement capillary pipette (Wiretrol, Drummond Scientific). Thirty minutes later, mice were challenged with 10 uL of inoculum containing HSV-2 strain G (ATCC #VR-734, 2.8×10^7 TCID50 per mL). […] Mice were assessed for infection three days later after inoculation by culturing a PBS vaginal lavage on human foreskin fibroblasts (Diagnostic Hybrids, MRHF Lot #440318W), as described previously (R. A. Cone, T. Hoen, X. Wong, R. Abusuwwa, D. J. Anderson, T. R. Moench, Vaginal microbicides: detecting toxicities in vivo that paradoxically increase pathogen transmission. BMC Infect Dis 6, 90 (2006)).
# Both the drug and the virus were administered intravaginally.
# ACVp nanoparticles were formulated with the same muco-inert coating used for all other studies. […] To study the distribution and retention of nanoparticles at the vaginal mucosal surface and the effects of repeated dosing, 6-8 week old CF-1 mice (Harlan) were used. Mice were housed in a reversed light cycle facility (12 h light/12 h dark). […] Journal of Virology 79, 3107-3116 (2005)).
# All data are presented as a mean with standard error of the mean (SEM) indicated. Statistical significance was determined by a two-tailed, Student's t-test (α=0.05) assuming unequal variance. In the case of HSV-2 challenge, statistical significance was determined using Fisher's exact test, two-tailed distribution.
compound,measurement,setting,value
"C[C@H](Cn1cnc2c(N)ncnc21)OCP(=O)(O)O [TFV, tenofovir]",water solubility,[1],at least 15 mg/mL
Nonoxynol-9 [N9],IL-1α level in vaginal lavage,[2],elevated
same,IL-1β level in vaginal lavage,[2],elevated
same,inflammation in H&E-stained vaginal tissue,[3],acute inflammation
Tween 80,Sample (relative) <Vmean>rel,[4],0.17
same,Sample <Vmean>,[4],0.94 um/s
Tyloxapol,Sample (relative) <Vmean>rel,[4],−0.02
same,Sample <Vmean>,[4],0.42 um/s
acyclovir monophosphate [Soluble ACV],animals infected compared to controls,HSV-2,70%
same,% Infected,HSV-2 strain G; 1 mg/mL in PBS,84.0%
same,# Infected,"HSV-2 strain G; 1 mg/mL in PBS, 25 mice",21
same,% Infected,"HSV-2 strain G; 1 mg/mL in PBS, listed as Soluble ACVp",84%
same,% Infected,"HSV-2 strain G; 1 mg/mL in PBS, listed as soluble ACVp",84.0%
same,% Infected,HSV-2 strain G; 10 mg/mL in PBS,62.0%
same,# Infected,"HSV-2 strain G; 10 mg/mL in PBS, 100 mice",62
same,% Infected,"HSV-2 strain G; 10 mg/mL in PBS, listed as Soluble ACVp",62%
same,% Infected,"HSV-2 strain G; 10 mg/mL in PBS, listed as soluble ACVp",62.0%
same,% Infected,HSV-2 strain G; 10 mg/mL in Water,69.3%
same,# Infected,"HSV-2 strain G; 10 mg/mL in Water, 75 mice",52

# Reference: patent publication US9393213B2, “Nanocrystals, compositions, and methods that aid particle transport in mucus” (Kala Pharmaceuticals, Inc., priority 2012, dated 2016)
